Results published in US6344351B2, “(R)-transaminase from arthrobacter” (Kaneka Corporation, priority 1995, dated 2002).

System: Arthrobacter species KNK168 strain
Test: Resolution of racemic 2-amino-1-methoxypropane by cells with aldehyde amino acceptors
Type: cell-based
Settings: 150 mM aldehyde as amino acceptor, 200 mM racemic 2-amino-1-methoxypropane, 30° C., 20 hours
Experimental: The Arthrobacter species KNK168 strain was cultured in the same manner as in Example 13, and the cells were separated from 1 ml of the culture. The cells were suspended in 1 ml of a reaction mixture containing a 0.1 M Tris-hydrochloric acid buffer (pH 8.5), 50 mg of racemic 2-amino-1-methoxypropane, 37.5 mg of pyruvic acid, and 0.1% of sodium dodecyl sulfate. The components were reacted at 30° C. for 24 hours with stirring. As a result of the analysis after the reaction, 23.4 mg of 2-amino-1-methoxypropane remained, and its optical purity was 95% ee ((S)-form).
By carrying out the same reaction as in Example 14 using 200 mM racemic 2-amino-1-methoxypropane, and 150 mM n-butylaldehyde or propionaldehyde, the components were reacted at 30° C. for 20 hours. As a result of the analysis thereof, the (S)-form of 2-amino-1-methoxypropane was concentrated, and the ratio of the (S)-form was 76% in a case of using n-butylaldehyde, and 58% in a case of using propionaldehyde.

SMILES	ratio of the (S)-form of 2-amino-1-methoxypropane [%]
CCCC=O [n-butylaldehyde]	76
CCC=O [propionaldehyde]	58
